Results: patent US8455549B2, “Carbonylamino derivatives useful for the treatment of certain inflammatory disorders” (Aniona Aps, priority 0207, dated 2013)

System: DNBS-induced distal colitis
Experiment: Inhibition of 2,4-Dinitrobenzenesulfonic Acid (DNBS)-induced distal colitis in rats
Type: in vivo, rat
Details: PO bid × 7, dose not specified
Description: Test substances A and B were evaluated for possible inhibition of 2,4-Dinitrobenzenesulfonic Acid (DNBS)-induced distal colitis in rats, which is a model of inflammatory bowel disease. The test compounds were soluble in a mixture of Cremophore EL, PEG400 and distilled water (10:10:80). Test substance was administered orally (PO) twice daily for 7 consecutive days. The dosing volume used was 10 ml/kg for PO. For test of Compound A groups of 10 Wistar derived male rats (BioLasco Taiwan) weighing 200±10 g were used. For test of Compound B groups of 5 Wistar derived male rats (BioLasco Taiwan) weighing 210±5 g were used. […] During the experiment, faecal occult blood and stool consistency were monitored daily. […] Also, the presence of colonic ulceration after removal and weighing of each colon (a macroscopic damage score) was recorded. […] The colon-to-body weight ratio was calculated according to the formula: (A) Colon-to-Body weight ratio (Colon weight/100 g B. W.) for each rat in respective treatment groups (vehicle blank, vehicle+DNBS, Test substance+DNBS and positive reference agent+DNBS) (B) The Net Increase of Colon weight/100 g B. W. For “vehicle+DNBS”: [(vehicle+DNBS)−(vehicle blank)] mean value of colon-to-body weight ratio For “test substance+DNBS”: [(test substance+DNBS)−(vehicle blank)] mean value of colon-to-body weight ratio (C) The percent decrease of colon weight/100 g B. Wt. […]

| Compound | stool consistency, occult faecal blood and macroscopic damage (adhesion and ulcers) in the colon |
| --- | --- |
| CC(C)C(C(N)=O)(c1ccc(F)cc1)c1ccc(F)cc1 [Compound A, 2,2-Bis-(4-fluoro-phenyl)-3-methyl-butyramide] | improved |
| NC(=O)C(c1ccccc1)(c1ccc(F)cc1)c1ccc(F)cc1 [Compound B, 2,2-Bis-(4-fluoro-phenyl)-2-phenyl-acetamide] | improved |
